Laboratory results reported in ChEMBL document CHEMBL1156271, “Discovery and SAR of novel pyrazole-based thioethers as cathepsin S inhibitors: part 1” (Bioorg Med Chem Lett, 2010).

target: T1, Cathepsin S (Homo sapiens, UniProt P25774); assay: Inhibition of human cathepsin S
T1 sequence (P25774 whole entry): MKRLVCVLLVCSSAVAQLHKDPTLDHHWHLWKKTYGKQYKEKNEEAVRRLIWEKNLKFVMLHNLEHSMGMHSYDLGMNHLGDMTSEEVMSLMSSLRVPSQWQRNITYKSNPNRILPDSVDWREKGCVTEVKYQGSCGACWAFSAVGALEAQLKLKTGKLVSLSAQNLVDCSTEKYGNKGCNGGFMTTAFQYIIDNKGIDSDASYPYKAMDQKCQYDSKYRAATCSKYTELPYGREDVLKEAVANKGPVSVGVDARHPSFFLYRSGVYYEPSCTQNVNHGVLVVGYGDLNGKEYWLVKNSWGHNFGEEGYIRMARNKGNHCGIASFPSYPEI

SMILES | IC50 [nM]
CS(=O)(=O)N1CCc2c(c(-c3ccc(Cl)c(SCCO)c3)nn2CCCN2CCOCC2)C1 | 960
CS(=O)(=O)N1CCc2c(c(-c3ccc(C(F)(F)F)c(SCCN4CCC5CCCCC5C4)c3)nn2CCCN2CCC(N3CCCC3=O)CC2)C1 (centres undefined) | 55

target: T1, Cathepsin S; assay: Inhibition of cathepsin S in human JY cells assessed as inhibition of invariant chain degradation; assay type: cell-based

SMILES | IC50 [nM]
CC(C)(C)C1CCN(CCSc2cc(-c3nn(CCCN4CCC(N5CCCC5=O)CC4)c4c3CN(S(C)(=O)=O)CC4)ccc2C(F)(F)F)CC1 | 330
CS(=O)(=O)N1CCc2c(c(-c3ccc(C(F)(F)F)c(SCCN4CCOCC4)c3)nn2CCCN2CCC(N3CCCC3=O)CC2)C1 | 680
CS(=O)(=O)N1CCc2c(c(-c3ccc(C(F)(F)F)c(SCCN4CCCCC4)c3)nn2CCCN2CCOCC2)C1 | 3570
CS(=O)(=O)N1CCc2c(c(-c3ccc(C(F)(F)F)c(SCCN4CCCCC4)c3)nn2CCCN2CCC(N3CCCC3)CC2)C1 | 320
CN1CCN(CCSc2cc(-c3nn(CCCN4CCC(N5CCCC5=O)CC4)c4c3CN(S(C)(=O)=O)CC4)ccc2C(F)(F)F)CC1 | 130
CS(=O)(=O)N1CCc2c(c(-c3ccc(C(F)(F)F)c(SCCN4CCCC4)c3)nn2CCCN2CCC(N3CCCC3=O)CC2)C1 | 80
CS(=O)(=O)N1CCc2c(c(-c3ccc(C(F)(F)F)c(SCCN4CCC(O)CC4)c3)nn2CCCN2CCC(N3CCCC3=O)CC2)C1 | 350
CS(=O)(=O)N1CCc2c(c(-c3ccc(C(F)(F)F)c(SCCN4CCC(c5ccccc5)CC4)c3)nn2CCCN2CCC(N3CCCC3=O)CC2)C1 | 950
CS(=O)(=O)N1CCc2c(c(-c3ccc(C(F)(F)F)c(SCCN4CCC5CCCCC5C4)c3)nn2CCCN2CCC(N3CCCC3=O)CC2)C1 (centres undefined) | 460
CC1CCN(CCSc2cc(-c3nn(CCCN4CCC(N5CCCC5=O)CC4)c4c3CN(S(C)(=O)=O)CC4)ccc2C(F)(F)F)CC1 | 810
CS(=O)(=O)N1CCc2c(c(-c3ccc(C(F)(F)F)c(SCCNCc4ccccc4)c3)nn2CCCN2CCC(N3CCCC3=O)CC2)C1 | 460
CS(=O)(=O)N1CCc2c(c(-c3ccc(C(F)(F)F)c(SCCN4CCCCC4)c3)nn2CCCN2CCCC2)C1 | 470
